Data set [1] concerns the target T1, HSP60/HSP10 (Homo sapiens, UniProt P10809). Description: Inhibition of human mitochondrial HSP60/HSP10 expressed in Escherichia coli DH5alpha/BL21 (DE3) assessed as inhibition of denatured MDH refolding preincubated for 10 mins followed by ATP addition measured after 40 to 60 mins by fluorescence based assay.
Data set [2] can be described thus: Inhibition of pig heart native MDH reporter reaction after 20 to 40 mins by fluorescence based assay. More on the design: species or system Sus scrofa.
The target of data set [3] is T2, E. coli GroEL/ES (Escherichia coli, UniProt P0A6F5). Description: Inhibition of Escherichia coli GroEL/GroES expressed in Escherichia coli DH5alpha/BL21 (DE3) assessed as inhibition of denatured MDH refolding preincubated for 10 mins followed by ATP addition measured after 20 to 40 mins by fluorescence based assay.
In data set [4] the test system is Trypanosoma brucei brucei. The experiment in a line: Antitrypanosomal activity against Trypanosoma brucei brucei Lister 427 VSG 221 [TetR T7RNAP] transgenic bloodstream forms assessed as reduction in cell viability after 48 hrs by alamar blue assay. The class given is functional. The note with it: Lister 427 VSG 221, 48 h. (Alamar Blue is a resazurin reagent that responds to reducing activity.)

Data set [5] can be described thus: Cytotoxicity against HEK293 cells assessed as reduction in cell viability after 48 hrs by alamar blue assay. The class given is toxicity, cell-based. The note with it: human.
Data set [6] addresses T1, HSP60/HSP10. Description: Inhibition of human mitochondrial HSP60/HSP10-ATPase activity expressed in Escherichia coli DH5alpha/BL21 (DE3) assessed as inhibition of denatured MDH refolding preincubated for 10 mins followed by ATP addition measured after 40 to 60 mins by malachite green dye based fluorescence assay.
A short description of data set [7]: Cytotoxicity against human THLE3 cells assessed as reduction in cell viability after 48 hrs by alamar blue assay. The class given is toxicity, cell-based.
Data set [8] addresses T2, E. coli GroEL/ES. Description: Inhibition of Escherichia coli GroEL/GroES-ATPase activity expressed in Escherichia coli DH5alpha/BL21 (DE3) assessed as inhibition of denatured MDH refolding preincubated for 10 mins followed by ATP addition measured after 20 to 40 mins by malachite green dye based fluorescence assay.

T2 sequence (P0A6F5 whole entry, looked up): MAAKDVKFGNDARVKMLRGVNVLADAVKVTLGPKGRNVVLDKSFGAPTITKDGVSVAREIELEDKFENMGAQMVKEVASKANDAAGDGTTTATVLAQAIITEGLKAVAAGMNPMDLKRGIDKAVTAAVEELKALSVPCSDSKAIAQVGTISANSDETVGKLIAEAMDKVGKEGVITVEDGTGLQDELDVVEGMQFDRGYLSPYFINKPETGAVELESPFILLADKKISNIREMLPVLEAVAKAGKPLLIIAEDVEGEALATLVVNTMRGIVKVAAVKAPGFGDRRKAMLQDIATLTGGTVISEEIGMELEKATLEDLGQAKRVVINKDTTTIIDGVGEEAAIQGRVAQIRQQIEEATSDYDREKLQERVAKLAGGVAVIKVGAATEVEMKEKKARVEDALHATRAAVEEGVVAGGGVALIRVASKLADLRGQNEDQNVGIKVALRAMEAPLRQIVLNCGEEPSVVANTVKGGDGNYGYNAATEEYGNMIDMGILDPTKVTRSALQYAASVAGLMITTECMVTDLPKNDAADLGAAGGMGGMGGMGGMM
T1 sequence (P10809 whole entry): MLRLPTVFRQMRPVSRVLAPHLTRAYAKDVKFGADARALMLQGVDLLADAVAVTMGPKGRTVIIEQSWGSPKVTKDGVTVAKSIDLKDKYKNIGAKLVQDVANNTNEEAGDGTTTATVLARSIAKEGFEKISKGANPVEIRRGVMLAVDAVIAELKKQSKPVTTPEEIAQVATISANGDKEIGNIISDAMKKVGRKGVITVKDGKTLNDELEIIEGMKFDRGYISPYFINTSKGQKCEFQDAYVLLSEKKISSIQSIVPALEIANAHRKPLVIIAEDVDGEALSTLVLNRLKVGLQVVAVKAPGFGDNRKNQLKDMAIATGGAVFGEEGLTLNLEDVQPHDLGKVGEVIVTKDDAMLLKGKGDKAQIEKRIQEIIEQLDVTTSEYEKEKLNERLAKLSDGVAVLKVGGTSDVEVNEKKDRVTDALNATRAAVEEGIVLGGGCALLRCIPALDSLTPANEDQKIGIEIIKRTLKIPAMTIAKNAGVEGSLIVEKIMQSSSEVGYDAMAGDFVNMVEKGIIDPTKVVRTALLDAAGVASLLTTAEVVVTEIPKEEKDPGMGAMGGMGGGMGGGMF
T1 sequence (P61604 whole entry, further chain): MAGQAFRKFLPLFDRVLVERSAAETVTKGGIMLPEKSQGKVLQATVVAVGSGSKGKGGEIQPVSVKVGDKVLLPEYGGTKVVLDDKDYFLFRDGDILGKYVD

With `O=C(O)c1cccc(S(=O)(=O)Nc2ccc(-c3nc4cc(NS(=O)(=O)c5cccc(C(=O)O)c5)ccc4o3)cc2)c1`, the IC50 in data set [1] is 81 µM; in data set [2], 41 µM; in data set [3] it was 61 µM; in data set [6], over 250 µM; in data set [8], over 250 µM. In data set [4], the EC50 was over 42 µM. In addition, the EC50 at 48 h in data set [5] and in data set [7] was over 100 µM throughout.

In the case of `O=C(O)c1ccccc1S(=O)(=O)Nc1ccc(-c2nc3cc(NS(=O)(=O)c4ccccc4C(=O)O)ccc3o2)cc1`, the IC50 in data set [1] is over 100 µM; in data set [2], over 63 µM; in data set [3], over 100 µM; in data set [6] it was over 250 µM; in data set [8], over 250 µM. Also, the EC50 in data set [4] was over 42 µM. Moreover, the EC50 at 48 h in data set [5] and in data set [7] was over 100 µM throughout.

`COC(=O)c1ccc(S(=O)(=O)Nc2ccc(-c3nc4cc(NS(=O)(=O)c5ccc(C(=O)OC)cc5)ccc4o3)cc2)cc1`: the IC50 was 87 µM in data set [1]; over 63 µM in data set [2]; 26 µM in data set [3]; over 250 µM in data set [6]; 91 µM in data set [8]. Also, the EC50 in data set [4] amounted to 23 µM. For the same compound, the EC50 at 48 h in data set [5] and in data set [7] was over 100 µM each time.

Turning to `O=C(O)c1ccc(S(=O)(=O)Nc2ccc(-c3nc4cc(NS(=O)(=O)c5ccc(C(=O)O)cc5)ccc4o3)cc2)cc1`, the IC50 was over 100 µM in data set [1]; over 63 µM in data set [2]; 83 µM in data set [3]; over 250 µM in data set [6]; over 250 µM in data set [8]. The EC50 in data set [4] is over 42 µM. The EC50 at 48 h in data set [5] and in data set [7] was over 100 µM throughout.

For the compound `NCCCC(N)(C(=O)O)C(F)F` (centres undefined) [EFLORNITHINE], the IC50 was over 100 µM in data set [1]; over 63 µM in data set [2]; over 100 µM in data set [3]; over 250 µM in data set [6]; over 250 µM in data set [8]. In addition, in data set [4], the EC50 was over 42 µM. Also, the EC50 at 48 h in data set [5] and in data set [7] was over 100 µM in each case.

As for `CC1CS(=O)(=O)CCN1/N=C/c1ccc([N+](=O)[O-])o1` (centres undefined) [NIFURTIMOX], the IC50 in data set [1] was over 100 µM; in data set [2], over 63 µM; in data set [3], over 100 µM; in data set [6], over 250 µM; in data set [8] it was over 250 µM. Further, the half-maximal effective concentration (EC50) in data set [4] worked out at 2.8 µM. For the same compound, the EC50 at 48 h in data set [5] and in data set [7] was over 100 µM each time.

`N=C(N)c1ccc(OCCCCCOc2ccc(C(=N)N)cc2)cc1` [PENTAMIDINE]: the IC50 in data set [1] was over 100 µM; in data set [2] it was over 63 µM; in data set [3] it was over 100 µM; in data set [6], over 250 µM; in data set [8] it was over 250 µM. The EC50 in data set [4] was under 0.019 µM. Moreover, the values for the EC50 at 48 h in data set [5] and in data set [7] were over 100 µM and 19 µM, respectively.

Consider `Cc1ccc(C(=O)Nc2ccc(S(=O)(=O)O)c3cc(S(=O)(=O)O)cc(S(=O)(=O)O)c23)cc1NC(=O)c1cccc(NC(=O)Nc2cccc(C(=O)Nc3cc(C(=O)Nc4ccc(S(=O)(=O)O)c5cc(S(=O)(=O)O)cc(S(=O)(=O)O)c45)ccc3C)c2)c1` [SURAMIN], for which the IC50 in data set [1] was 11 µM; in data set [2], over 63 µM; in data set [3], 7.9 µM; in data set [6], over 250 µM; in data set [8], over 250 µM. The concentration for a half-maximal effect (EC50) in data set [4] came out at 0.12 µM. Besides, the EC50 at 48 h in data set [5] and in data set [7] was over 100 µM in each case.

A word on the IC50: it is the concentration at which inhibition is half-maximal. The EC50 is the midpoint of the concentration-response curve.
